How the values were obtained:
[1] = target: T1, MA3706 (Methanosarcina acetivorans, UniProt Q8TJS1); assay: isothermal titration calorimetry; type: binding; conditions: read-out: dissociation constant
T1 construct: gene MA_3706; removal not described), expressed in E. coli BL21(DE3) Rosetta, Ni-NTA purified

[2] = target: T2, MA4265 (Methanosarcina acetivorans, UniProt Q8TI91); assay: waterLOGSY 1H NMR; type: binding; conditions: 300 μM ligand, 30 μM protein; 50 mM sodium phosphate, 100 mM NaCl, pH 7.0; 5 or 25 °C
T2 construct: gene MA_4265; removal not described), expressed in E. coli at 25°C, Ni-NTA purified
T2 sequence (Q8TI91 1-342): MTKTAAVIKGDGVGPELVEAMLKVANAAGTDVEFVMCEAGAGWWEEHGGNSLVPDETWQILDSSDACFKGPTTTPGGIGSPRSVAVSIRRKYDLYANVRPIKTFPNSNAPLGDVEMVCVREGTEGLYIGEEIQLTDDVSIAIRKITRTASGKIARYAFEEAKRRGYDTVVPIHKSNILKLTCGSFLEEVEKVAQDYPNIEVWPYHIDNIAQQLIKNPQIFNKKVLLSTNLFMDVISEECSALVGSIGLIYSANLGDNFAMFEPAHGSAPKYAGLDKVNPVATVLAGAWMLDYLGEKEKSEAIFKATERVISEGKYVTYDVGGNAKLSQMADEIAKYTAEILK

T1 sequence (Q8TJS1 whole entry): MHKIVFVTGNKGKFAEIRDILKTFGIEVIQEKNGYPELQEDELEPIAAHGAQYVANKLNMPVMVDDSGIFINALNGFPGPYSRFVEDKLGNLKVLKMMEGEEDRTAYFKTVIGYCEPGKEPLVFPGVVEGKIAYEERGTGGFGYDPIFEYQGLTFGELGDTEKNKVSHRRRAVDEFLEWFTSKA

| Kd [1] [µM] | SMILES | waterLOGSY 1H NMR [2] |
| --- | --- | --- |
| 7.8 | O=P(O)(O)OP(=O)(O)OP(=O)(O)OC[C@H]1O[C@@H](n2cnc3c(O)ncnc32)[C@H](O)[C@@H]1O [ITP] | – |
| – | O=C(O)C[C@H](C(=O)O)[C@@H](O)C(=O)O [isocitrate] | Only isocitrate binds to MA4265 under the conditions used. |

Source: PMC3223730, “A nuclear magnetic resonance based approach to accurate functional annotation of putative enzymes in the methanogen Methanosarcina acetivorans” (BMC Genomics, 2011)
